The target of one assay is T1, Human Liver Cathepsin B (Homo sapiens, UniProt P07858).
T1 construct: from tissue; host or cells: human liver
As to the kind of experiment: Biochemical assay of inhibition of Cathepsin B enzymatic activity. To be noted: 20 uM Boc-Leu-Arg-Arg-AMC, pH 5.5, 15 minutes preincubation, 30 minutes at 25° C. The procedure:
The test compound of Formula (I) was dissolved in dimethylsulfoxide (DMSO) and diluted in assay buffer. An 8 point dose response curve was completed in order to evaluate the IC50 value of inhibition of Cathepsin B enzymatic activity (IC50 is defined as the concentration which inhibited 50% of maximal enzyme activity). The assay protocol was adapted from Barrett, 1980. Human Liver Cathepsin B was incubated in assay buffer (50 mM sodium acetate, pH 5.5, 1 mM dithiothreitol (DTT), 2 mM ethylenediaminetetraacetic acid (EDTA) with 20 uM peptide substrate (Boc-Leu-Arg-Arg-AMC) with the compounds diluted from DMSO stocks or DMSO vehicle alone. Final DMSO concentration was retained at 1% in the assay. The test compound was preincubated with the enzyme for 15 minutes at 25° C. Reaction was started with the addition of substrate, and allowed to proceed for 30 minutes at 25° C. Substrate cleavage was monitored with spectrofluorimetric quantitation of methylcoumarylamide (AMC).

Assay [1] deals with T2, Cathepsin B in human cells (HUVECs) (Homo sapiens, UniProt P07858).
T2 construct: endogenous in cells; host or cells: HUVEC (human umbilical vein endothelial cells)
As to the kind of experiment: Cellular activity-based probe (whole-cell enzyme occupancy) assay. The note with it: serum-free media, 4 hours compound treatment, 125I-DMK probe 1 hour. The protocol: Activity of Cathepsin B in cells was measured with the use of an activity-based radioactive probe in a whole-cell enzyme occupancy assay. This method was used to determine the specific potencies of compounds on Cathepsin B in the intracellular environment. The probe used was a peptide diazomethylketone which binds to Cathepsins, including Cathepsin B, potently and irreversibly. This cell-permeable probe binds to active Cathepsin B and binding can be quantified to determine the level of Cathepsin B activity in cells. Cathepsin B enzyme in cells which has bound to an inhibitor is not active and as such not available for binding by the activity-based probe.
The method used was based on a modification of a published method (Falgueyret J-P, et al. 2004. Anal. Biochem. 335:218-227). Human umbilical vein endothelial cells (HUVECs) were grown in 24 well plates in standard growth conditions. […]
To analyze probe-labeled proteins, samples were boiled for 5 minutes and analyzed by SDS-PAGE. […] The band intensities on the autoradiographs were determined. Autoradiographs were scanned using a Microtek ScanMakeri900 scanner and bands quantified with a program such as the BioRad Imaging program QuantityOne or ImageJ. Compound potencies were calculated as a % of the no inhibitor control and IC50 values were extrapolated from the dose-response curves using a suitable program like GraphPad Prism.

Assay [2] has as its system Liver fibrosis induced in mice by carbon tetrachloride. As to the kind of experiment: Carbon tetrachloride-induced liver fibrosis model. The note with it: CCl4 fibrosis, once daily from day 12, 250 mg/kg and 50 mg/kg, terminal day 33. Format: in vivo. The procedure:
Liver fibrosis was induced in mice by intraperitoneal administration of carbon tetrachloride every 5 days over a 28-day period (days 0-28). On day 11, plasma alanine aminotransferase (ALT) levels and aspertate aminotransferase (AST) were measured from representative mice to confirm liver damage. (2S,4R)-1-((S)-(3-tert-butylureido)-3,3-dimethylbutanoyl]-N-((S)-1-cyclopropylamino)-1,2-dioxohexan-3-yl)-4-(7-methoxy-2-(1H-pyrazol-1-yl)-quinolin-4-yloxy)pyrrolidine-2-carboxamide was administered therapeutically, once daily, starting on day 12, […]. On day 33, terminal plasma AST and ALT, liver hydroxyproline, PK/PD, and histology were assessed.

Bounds are passed on as bounds.

This is an account of results in patent US8211897B2, “Inhibitors of cathepsin B” (ViroBay, Inc., priority 2008, dated 2012).

One may read the IC50 as the point on the concentration scale where inhibition reaches its midpoint. A high value points to weaker potency in that assay.

On to `CCC[C@H](NC(=O)[C@@H]1C[C@@H](Oc2nc(C)cc3cc(OC)ccc23)CN1C(=O)[C@@H](NC(=O)NC(C)(C)C)C(C)(C)C)C(=O)C(=O)NC1CC1` [Example 15, (2S,4R)-1-((S)-2-(3-tert-butylureido)-3,3-dimethylbutanoyl)-N-((S)-1-(cyclopropylamino)-1,2-dioxohexan-3-yl)-4-(6-methoxy-3-methylisoquinolin-1-yloxy)pyrrolidine-2-carboxamide], for which, on Human Liver Cathepsin B, the half-inhibitory concentration (IC50) is 32 nM.

Consider `CCC[C@H](NC(=O)[C@@H]1C[C@@H](Oc2cc(-n3cccn3)nc3cc(OC)ccc23)CN1C(=O)[C@@H](NC(=O)NCC(C)(C)C)C(C)(C)C)C(=O)C(=O)NC1CC1` [(2S,4R)-N-((S)-1-(cyclopropylamino)-1,2-dioxohexan-3-yl)-1-((S)-3,3-dimethyl-2-(3-neopentylureido)butanoyl)-4-(7-methoxy-2-(1H-pyrazol-1-yl)quinolin-4-yloxy)pyrrolidine-2-carboxamide], for which the IC50 against Human Liver Cathepsin B came out at 61 nM.

In turn, `CCC[C@H](NC(=O)[C@@H]1C[C@@H](Oc2nc(-c3ccccn3)nc3ccsc23)CN1C(=O)[C@@H](NC(=O)NC(C)(C)C)C(C)(C)C)C(=O)C(=O)NC1CC1` [Example 17, (2S,4R)-1-((S)-2-(3-tert-butylureido)-3,3-dimethylbutanoyl)-N-((S)-1-(cyclopropylamino)-1,2-dioxohexan-3-yl)-4-(2-(pyridin-2-yl)thieno[3,2-d]pyrimidin-4-yloxy)pyrrolidine-2-carboxamide] gave an IC50 against Human Liver Cathepsin B of 33 nM.

At Human Liver Cathepsin B, `CCC[C@H](NC(=O)[C@@H]1CC(Oc2cc(-c3ccccn3)nc3ccsc23)CN1C(=O)[C@@H](NC(=O)NC(C)(C)C)C(C)(C)C)C(=O)C(=O)NC1CC1` (stereo partly shown) displayed a half-inhibitory concentration (IC50) of 86 nM. Compared with the last compound, the IC50 is about 2.6-fold higher.

For the compound `CCCC[C@H](NC(=O)[C@@H]1CC(Oc2nccc3cc(OC)ccc23)CN1C(=O)[C@@H](NC(=O)NC(C)(C)C)C(C)(C)C)C(=O)C(=O)NC1CC1` (stereo partly shown) [Example 13], on Human Liver Cathepsin B, the IC50 amounted to 28 nM. This IC50 is about 3.1-fold lower than that of the compound before.

With `COc1ccc2c(O[C@@H]3C[C@@H](C(=O)N[C@@H](CC4CC4)C(=O)C(=O)NC4CC4)N(C(=O)[C@@H](NC(=O)NC(C)(C)C)C(C)(C)C)C3)nccc2c1` [Example 10, (2S,4R)-1-((S)-2-(3-tert-Butylureido)-3,3-dimethylbutanoyl)-N-((S)-1-cyclopropyl-4-(cyclopropylamino)-3,4-dioxobutan-2-yl)-4-(6-methoxyisoquinolin-1-yloxy)-pyrrolidine-2-carboxamide], the IC50 at Human Liver Cathepsin B is 56 nM.

On to `CCC[C@H](NC(=O)[C@@H]1CC(Oc2cc(-n3cccn3)nc3cc(OC)ccc23)CN1C(=O)[C@@H](NC(=O)NCC1CC1)C(C)(C)C)C(=O)C(=O)NC1CC1` (stereo partly shown), for which the midpoint of inhibition against Human Liver Cathepsin B, the IC50, lay at 83 nM.

`CCOc1ccc2c(O[C@@H]3C[C@@H](C(=O)N[C@@H](CC4CC4)C(=O)C(=O)NC4CC4)N(C(=O)[C@@H](NC(=O)NC(C)(C)C)C(C)(C)C)C3)nccc2c1` [Example 11, (2S,4R)-1-((S)-2-(3-tert-Butylureido)-3,3-dimethylbutanoyl)-N-((S)-1-cyclopropyl-4-(cyclopropylamino)-3,4-dioxobutan-2-yl)-4-(6-ethoxyisoquinolin-1-yloxy)-pyrrolidine-2-carboxamide] gave an IC50 against Human Liver Cathepsin B of 49 nM.

`CCC[C@H](NC(=O)[C@@H]1C[C@@H](Oc2nc(-c3cc(C)nn3C)nc3ccsc23)CN1C(=O)[C@@H](NC(=O)NC(C)(C)C)C(C)(C)C)C(=O)C(=O)NC1CC1` [Example 18, (2S,4R)-1-((S)-2-(3-tert-butylureido)-3,3-dimethylbutanoyl)-N-((S)-1-(cyclopropylamino)-1,2-dioxohexan-3-yl)-4-(2-(1,3-dimethyl-1H-pyrazol-5-yl)thieno[3,2-d]pyrimidin-4-yloxy)pyrrolidine-2-carboxamide] came in with an IC50 on Human Liver Cathepsin B of 72 nM. The IC50 values of the last two compounds are within 1.5-fold of each other.

In turn, `COc1ccc2c(O[C@@H]3C[C@@H](C(=O)N[C@@H](CC4CCC4)C(=O)C(=O)NC4CC4)N(C(=O)[C@@H](NC(=O)NC(C)(C)C)C(C)(C)C)C3)cc(-n3cccn3)nc2c1` [Example 2, (2S,4R)-1-((S)-(3-tert-butylureido)-3,3-dimethylbutanoyl]-N-((S)-1-cyclobutyl-4-(cyclopropylamino)-3,4-dioxobutan-2-yl)-4-(7-methoxy-2-(1H-pyrazol-1-yl)-quinolin-4-yloxy)pyrrolidine-2-carboxamide] registered an IC50 against Human Liver Cathepsin B of under 500 nM. In assay [1], the midpoint of inhibition, the IC50, lay at 19 nM. In assay [2], the liver hydroxyproline result is reported as “reduces”, the “plasma ALT” value is “reduces” and the “plasma AST” value is reported as “reduces”.

For the compound `CCC[C@H](NC(=O)[C@@H]1CC(Oc2cc(-n3cccn3)nc3cc(OC)ccc23)CN1C(=O)[C@@H](NC(=O)NC(C)(C)C)C(C)(C)C)C(=O)C(=O)NC1CC1` (stereo partly shown) [Example 1], the IC50 at Human Liver Cathepsin B is under 500 nM. Further, the IC50 in assay [1] came to 24 nM. For the same compound, in assay [2], the liver hydroxyproline entry was “decreased”, the “plasma ALT” value is “decreased” and the “plasma AST” value was “decreased”.

With `CCC[C@H](NC(=O)[C@@H]1C[C@@H](Oc2nccc3cc(OCC)ccc23)CN1C(=O)[C@@H](NC(=O)NC(C)(C)C)C(C)(C)C)C(=O)C(=O)NC1CC1` [Example 12, (2S,4R)-1-((S)-2-(3-tert-Butylureido)-3,3-dimethylbutanoyl)-N-((S)-1-(cyclopropylamino)-1,2-dioxohexan-3-yl)-4-(6-ethoxyisoquinolin-1-yloxy)-pyrrolidine-2-carboxamide], it took 45 nM to reach half-maximal inhibition against Human Liver Cathepsin B (IC50).

As to `CCC[C@H](NC(=O)[C@@H]1C[C@@H](Oc2nc(-c3ccccn3)nc3sccc23)CN1C(=O)[C@@H](NC(=O)NC(C)(C)C)C(C)(C)C)C(=O)C(=O)NC1CC1` [Example 16, (2S,4R)-1-((S)-2-(3-tert-butylureido)-3,3-dimethylbutanoyl)-N-((S)-1-(cyclopropylamino)-1,2-dioxohexan-3-yl)-4-(2-(pyridin-2-yl)thieno[2,3-d]pyrimidin-4-yloxy)pyrrolidine-2-carboxamide], at Human Liver Cathepsin B, the IC50 is 45 nM.

The compound `CCC[C@H](NC(=O)[C@@H]1C[C@@H](Oc2nccc3cc(OC)ccc23)CN1C(=O)[C@@H](NC(=O)NC(C)(C)C)C(C)(C)C)C(=O)C(=O)NC1CC1` [Example 9] yielded a concentration for half-maximal inhibition (IC50) on Human Liver Cathepsin B of 27 nM.
